Experimental data taken from US8399206B2, “Methods for diagnosis, prognosis and methods of treatment” (Nodality, Inc., priority 2008, dated 2013).

Columns and labels:
Format in all cases: cell-based, human
AML leukemic cells = test: Apoptosis/cytostasis arm: 48-hr kinase inhibitor incubation of AML cells (cleaved PARP, CyclinB1, p-Histone H3); conditions: 1 μM; two samples with the greatest SCF and G-CSF signaling response and most robust proliferation
Experimental: The TKIs impact was measured on distal functional readouts, including apoptosis (cleaved PARP) and cell cycle (CyclinB1-S/G2 phase; p-Histone H3-M phase). All results were compared with results from bone marrow samples from healthy donors (N=6).

[1] = system: pediatric AML leukemic blasts; test: SCNP assay on pediatric AML bone marrow samples, POG trial 9421 (Example 11)
Experimental: SCNP assays were performed on 77 bone marrow samples from pediatric AML patients enrolled in POG trial 9421 of which 67 were evaluable/had sufficient data for analysis and were enriched for non-responders (NR). 80 combinations of modulators and intra-cellular proteins (signaling nodes) were investigated including nodes involved in the phosphoinositide 3-kinase (PI3K), Janus Kinases (JAK), signal transducers and activators of transcription (STAT) and the DNA damage response and apoptosis pathways. Basal and modulated protein levels in leukemic blasts were measured using several metrics (e.g., fold change, total level of phosphorylation, and a rank based method Uu measuring the proportion of cells that shift from baseline), and nodes were examined in univariate and multivariate analyses for their ability to discriminate between AML responsive (CR, n=46) and non-responsive (NR, n=21) to anthracycline/cytarabine-based induction therapy. Furthermore, nodes were examined for their ability to identify patients likely to be in complete continuous remission (CCR, n=23) or relapse (CR-Rel, n=23) within 4 years.

AML BMMC leukemic blasts [2] = test: Functional apoptosis assay, AML study No. 2 (etoposide or Ara-C and daunorubicin, 24 hours); conditions: patients younger than 60 years old
Experimental: Multi-parameter flow cytometric analysis was performed on BMMC samples taken at diagnosis from 61 AML patients. The samples were balanced for complete response (CR) and non-responders (NR) after 1 to 3 cycles of induction therapy and de novo versus secondary AML. Nodes in Tables 2 to 10 were examined.
Functional assays were performed as previously described. […]
The median fluorescence intensity (MFI) was computed for each node from the fluorescence intensity levels for the cells in the myeloid population. The MFI values were then used to compute a variety of metrics by comparing them to baseline or background values, including the unmodulated condition, cellular autofluorescence and antibody isotype controls. The following metrics were computed: • 1. Basal MFI (“Basal”)=log2(MFIUnmodulated Stained)−log2(MFIGated Unstained (Autofluoresence)), designed to measure the basal levels of a certain protein under unmodulated conditions. • 2. Fold Change MFI (“Fold”)=log2(MFIModulated Stained)−log2(MFIUnmodulated Stained), a measure of the change in the activation state of a protein under modulated conditions. • 3. Total Phospho MFI (“TotalPhospho”)=log2(MFIModulated Stained)−log2(MFIGated Unstained (Autofluorescence)), a measure of the total levels of a protein under modulated conditions. • 4. […]

[3] = system: FLT3-WT and FLT3-ITD AML leukemic blasts; test: SCNP signaling and apoptosis in FLT3-WT versus FLT3-ITD AML samples (Example 9); conditions: FLT3-ITD vs FLT3-WT samples, study 1 and study 2
Text: This example identifies intracellular signaling pathways associated with FLT3 ITD in two independent cohorts of diagnostic AML samples that serve as an improvement over current clinical tools in the identification of clinically meaningful altered FLT 3 and has implications for cohort selection in the development of FLT3 inhibitors. The two cohorts of data were further analyzed to investigate the differences in signaling between FLT-WT and FLT-ITD samples. The first cohort of data (“study 1”) comprised the 34 samples from University Health Network outlined in Table 16 and Table 19. The second cohort of data (“study 2”) comprised an 83 sample subset of MD Anderson Cancer Center data outlined in Table 16 (and Table 19). The 83 sample subset was selected based on known FLT3 mutation status. Both cohorts of data were used to investigate differences in FLT3 signaling between leukemic blasts and control data.
In order to further characterize wild-type FLT receptor signaling in AML, we compared FLT3L-induced signaling in the myeloblast population of control BMMC samples with FLT3L-induced signaling in the leukemic blast population of FLT3-WT AML samples.
Univariate analysis, unadjusted for multiple testing, was performed sequentially and independently on the two study cohorts in order to identify signaling nodes that distinguished with FLT3-ITD from FLT3-WT AML patient samples. […] Results from both studies include the AUC, Wilcoxon and t-test p-value for each node, and the number/mean value of the samples in the FLT3-ITD and FLT3-WT AML groups with common stratifying nodes summarized in FIG. 23. Although the majority of the discussion herein is directed to nodes that had similar reponses within the two cohorts of data, some differences were observed between the two cohorts of data. These differences may have been due to the different clinical characteristics of the two cohorts of data, specifically biases in the data from UHN.

AML BMMC leukemic blasts [4] = test: SCNP modulated signaling assay, AML study No. 2 (BMMC, CR vs NR, clinical sub-groups)
Experimental: Two independent sets of cryopreserved samples were analyzed sequentially. The first set consisted of 35 peripheral blood mononuclear cell (PBMC) samples derived from AML patients. The second set consisted of 134 cryopreserved bone marrow mononuclear cell (BMMC) samples derived from AML patients. These samples were the same samples used in the previous examples. Sample inclusion criteria required collection prior to initiation of induction chemotherapy, AML classification by the French-American-British (FAB) criteria as M0 through M7 (excluding M3) and availability of clinical annotations.
In the first study, induction chemotherapy consisted of at least one cycle of standard cytarabine-based induction therapy (i.e. daunorubicin 60 mg/m^2×3 days, cytarabine 100-200 mg/m^2 continuous infusion×7 days); responses were measured after one cycle of induction therapy. In the second study, cytarabine (200 mg/m^2 to 3 g/m^2) was used in combination with an anthracycline (daunorubicin or idarubicin) or an additional anti-metabolite (e.g. fludarabine or troxacitabine), and sometimes, an experimental agent (Table 16). […] Standard clinical and laboratory criteria were used for defining complete response (CR) in both studies. […] Classified as “CRp,” these samples were included in the CR group for all primary analysis. The univariate analyses were also repeated with the CRp patients classified into the NR sample group for sensitivity analysis.
Cyropreserved samples were thawed at […], washed and centrifuged in PBS, 10% FBS and 2 mM EDTA. The cells were re-suspended, filtered to remove debris and washed in RPMI cell culture media, 1% FBS, then stained with Live/Dead Fixable Aqua Viability Dye to distinguish non-viable cells. The cells were then re-suspended in RPMI, 1% FBS, aliquoted to 100,000 cells/condition and rested for 1-2 hours at 37° C. prior to SCNP assays. Each condition included two to five phenotypic markers for cell population gating (eg, CD45, CD33), up to three intracellular stains or up to three additional surface markers or control antibodies for an eight-color flow cytometry assay.
Functional assays were performed as previously described. Cells were incubated with modulators (Table 18), at 37° C. for 3-15 minutes, fixed with 1.6% paraformaldehyde (final concentration) for 10 minutes at 37° C., pelleted and permeabilized with 100% ice-cold methanol and stored at −80° C.
Data was acquired using FACS DIVA software on both LSR II and CANTO II Flow Cytometers (BD). For all analyses, dead cells and debris were excluded by forward scatter (FSC), side scatter (SSC), and Amine Aqua Viability Dye measurement. Leukemic cells were identified as cells that lacked the characteristics of mature lymphocytes (CD45^++, CD33^−) and that fit the CD45 and CD33 versus right-angle light-scatter characteristics consistent with myeloid leukemia cells.
The median fluorescence intensity (MFI) was computed for each node from the fluorescence intensity levels for the cells in the myeloid population. The MFI values were then used to compute a variety of metrics by comparing them to baseline or background values, including the unmodulated condition, cellular autofluorescence and antibody isotype controls. The following metrics were computed: • 1. Basal MFI (“Basal”)=log2(MFIUnmodulated Stained)−log2(MFIGated Unstained (Autofluoresence)), designed to measure the basal levels of a certain protein under unmodulated conditions. • 2.

AML blasts = test: SCNP / phospho-flow modulated signaling assay, AML study No. 1 (PBMC at diagnosis, CR vs NR)
Text: The present illustrative example represents how to analyze cells in one embodiment of the present invention. There are several steps in the process, such as the stimulation step, the staining step and the flow cytometry step. The stimulation step of the phospho-flow procedure can start with vials of frozen cells and end with cells fixed and permeabilized in methanol. Then the cells can be stained with an antibody directed to a particular protein of interest and then analyzed using a flow cytometer.
Frozen cells are thawed in a 37° C. water bath and gently resuspended in the vial and transferred to the 15 mL conical tube. The 15 mL tube is centrifuged at 930 RPM (200×g) for 8 minutes at room temperature. The supernatant is aspirated and the pellet is gently resuspended in 1 mL media A. The cell suspension is filtered through a 70 um cell strainer into a new 15 mL tube. The cell strainer is rinsed with 1 mL media A and another 12 ml of media A into the 15 mL tube. The cells are mixed into an even suspension. A 20 μL aliquot is immediately removed into a 96-well plate containing 180 μL PBS+4% FBS+CD45 Alexa 700+PI to determine cell count and viability post spin. After the determination, the 15 mL tubes are centrifuged at 930 RPM (200×g) for 8 minutes at room temperature. The supernatant is aspirated and the cell pellet is gently resuspended in 4 mL PBS+4 μL Amine Aqua and incubated for 15 min in a 37° C. incubator. 10 mL RPMI+1% FBS is added to the cell suspension and the tube is inverted to mix the cells. The 15 mL tubes are centrifuged at 930 RPM (200×g) for 8 minutes at room temperature. The cells are resuspended in Media A at the desired cell concentration (1.25×10^6/mL). For samples with low numbers of cells (<18.5×10^6), the cells are resuspended in up to 15 mL media. For samples with high numbers of cells (>18.5×10^6), the volume is raised to 10 mL with media A and the desired volume is transferred to a new 15 mL tube, and the cell concentration is adjusted to 1.25×10^6 cells/ml. 1.6 mL of the above cell suspension (concentration at 1.25×10^6 cells/ml) is transferred into wells of a multi-well plate. From this plate, 80 ul is dispensed into each well of a subsequent plate. The plates are covered with a lid (Nunc) and placed in a 37° C. incubator for 2 hours to rest.
A concentration for each stimulant that is five folds more (5×) than the final concentration is prepared using Media A as diluent. 5× stimuli are arrayed into wells of a standard 96 well v-bottom plate that correspond to the wells on the plate with cells to be stimulated.
Adding the stimulant: The cell plate(s) are taken out of the incubator and placed in a 37° C. water bath next to the pipette apparatus. The cell plate is taken from the water bath and gently swirled to resuspend any settled cells. With pipettor, the stimulant is dispensed into the cell plate and vortexed at “7” for 5 seconds. The deep well plate is put back into the water bath.
Adding Fixative: 200 μl of the fixative solution (final concentration at 1.6%) is dispensed into wells and then mixed on the titer plate shaker on high for 5 seconds. The plate is covered with foil sealer and incubated in a 37° C. water bath for 10 minutes. The plate is spun for 6 minutes at 2000 rpm at room temperature. The cells are aspirated using a 96 well plate aspirator (VP Scientific). The plate is vortexed to resuspend cell pellets in the residual volume. The pellet is ensured to be dispersed before the Methanol step (see cell permeabilization) or clumping will occur.
Cell Permeabilization: Permeability agent, for example methanol, is added slowly and while the plate is vortexing. To do this, the cell plate is placed on titer plate shaker and made sure it is secure. The plate is set to shake using the highest setting. A pipetter is used to add 0.6 mls of 100% methanol to the plate wells. The plate(s) are put on ice until this step has been completed for all plates.

[5] = Study No. 2, all patients, CR samples
[6] = Study No. 2, all patients, NR samples
[7] = Study No. 1 sensitivity analysis, CR samples
[8] = Study No. 1 sensitivity analysis, NR samples incl. CRp

C[C@@H]1CCN(C(=O)CC#N)C[C@@H]1N(C)c1ncnc2[nH]ccc12 [CP-690,550]
sensitivity to kinase inhibitor as measured by cytostasis readouts (AML leukemic cells): most sensitive

COc1cc([C@@H]2c3cc4c(cc3[C@@H](O[C@@H]3O[C@@H]5CO[C@@H](C)O[C@H]5[C@H](O)[C@H]3O)[C@H]3COC(=O)[C@H]23)OCO4)cc(OC)c1O [Etoposide]
apoptotic response (c-PARP, p-Chk2), CR vs NR ([1]; CR n=46, NR n=21): higher levels of apoptosis in CR samples than in NR samples | induced apoptosis, CR vs NR (AML BMMC leukemic blasts [2]): CRs induce apoptosis to Etoposide or Ara-C/Daunorubicin more than NRs | in vitro apoptosis (etoposide→c-PARP|Total) [3]: more sensitive to in vitro apoptosis than FLT3-WT samples

OO [H2O2, hydrogen peroxide, reference compound]
p-Akt and p-PLC gamma levels with hydrogen peroxide as modulator ([1]; NR samples): lower p-Akt and p-PLC gamma levels in NR samples | p-AKT and p-PLCγ2 following H2O2 treatment (AML BMMC leukemic blasts [4]; NR samples, older patient cohort (>=60 years)): increases in p-AKT and p-PLCγ2 | Mean Value of CRs, p-Akt Fold (AML BMMC leukemic blasts [4]; [5]): 0.68 | Mean Value of NRs, p-Akt Fold (AML BMMC leukemic blasts [4]; [6]): 0.91 | H2O2 and FLT3L responses, NR vs CR (AML BMMC leukemic blasts [4]; patients younger than 60 years old (so in the source)): NRs have higher H2O2 and FLT3L responses than CRs | phosphorylated PLCγ2 and SLP-76 upon H2O2 treatment (AML blasts; CR patients versus NR patients): attained higher levels of phosphorylated PLCγ2 and SLP-76 upon H2O2 treatment | p-Akt levels upon H2O2 treatment (AML blasts; NR vs CR patient blasts): higher levels of p-Akt in NR patients versus CR patients

C/C=C(/C)C(=O)O[C@H]1C(C)=C2[C@H]([C@@H]1OC(=O)CCCCCCC)[C@@](C)(OC(C)=O)C[C@H](OC(=O)CCC)[C@@]1(O)[C@H]2OC(=O)[C@@]1(C)O [Thapsigargin, reference compound]
induction of p-Erk, p-CREB and p-S6 ([1]; relapse vs complete continuous remission (CCR)): less in CR-Rd than in CCR samples | Mean Value of CRs, p-Erk Fold (AML BMMC leukemic blasts [4]; [5]): 1.22 | Mean Value of NRs, p-Erk Fold (AML BMMC leukemic blasts [4]; [6]): 0.36 | Mean Value of CRs, p-CREB Total Phospho (AML blasts; [7]): 1.79 | Mean Value of CRs, p-S6 Fold (AML blasts; [7]): 0.03 | Mean Value of CRs, p-S6 Total Phospho (AML blasts; [7]): 0.31 | Mean Value of NRs, p-CREB Total Phospho (AML blasts; [8]): 2.77 | Mean Value of NRs, p-S6 Fold (AML blasts; [8]): 0.31 | Mean Value of NRs, p-S6 Total Phospho (AML blasts; [8]): 0.67
